Measurements reported in US20240043470A1, “MACROCYCLIC COMPOUNDS AS PROTEASOME INHIBITORS” (CORNELL UNIVERSITY, priority 2017, published 2024).

target: β5c of hu c-20S (Homo sapiens (Human), UniProt P20618+P28074); assay: IC50 determination against β5c of human constitutive proteasome (suc-LLVY-AMC hydrolysis); type: biochemical; settings: 0.2 nM c-20S, 25 μM suc-LLVY-AMC;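 further: IC50 obtained by fitting initial reaction velocities to a dose-dependent inhibition model, with SDS present as proteasome activator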

Compared with Cn1cc(CNC(=O)[C@@H]2Cc3cccc(c3)Oc3cccc(c3)C[C@H](N3CCCCC3)C(=O)N[C@@H](CCc3ccccc3)C(=O)N2)cn1 [Compound 1-01, (5S,8S,11S)—N-((1-Methyl-1H-pyrazol-4-yl)methyl)-7,10-dioxo-8-phenethyl-11-(piperidin-1-yl)-2-oxa-6,9-diaza-1,3(1,3)-dibenzenacyclododecaphane-5-carboxamide], CN1CCC(C(=O)N[C@H]2Cc3cccc(c3)Oc3cccc(c3)C[C@@H](C(=O)NCc3cnn(C)c3)NC(=O)[C@H](CCc3ccccc3)NC2=O)CC1 [Compound 1-03, (5S,8S,11S)—N-((1-Methyl-1H-pyrazol-4-yl)methyl)-11-(1-methylpiperidine-4-carboxamido)-7,10-dioxo-8-phenethyl-2-oxa-6,9-diaza-1,3(1,3)-dibenzenacyclododecaphane-5-carboxamide] is 2.5-fold higher in IC50: 0.402 µM for the first, 1 µM for the second.

Compared with CCN(CC)[C@H]1Cc2cccc(c2)Oc2cccc(c2)C[C@@H](C(=O)NCc2cnn(C)c2)NC(=O)[C@H](CCc2ccccc2)NC1=O [Compound 1-02], CCN(CC)[C@H]1Cc2cccc(c2)Oc2cccc(c2)C[C@@H](C(=O)NC2CCCC2)NC(=O)[C@H](CCc2ccccc2)NC1=O [Compound 1-22] is 76-fold higher in IC50: 0.55 µM for the first, 41.6 µM for the second.

First: COC(=O)N[C@H]1Cc2cccc(c2)Oc2cccc(c2)C[C@@H](C(=O)NCC2CC2)NC(=O)[C@H](CCc2ccccc2)NC1=O [Compound 1-06]
Second: CCC(=O)N[C@H]1Cc2cccc(c2)Oc2cccc(c2)C[C@@H](C(=O)NCC2CC2)NC(=O)[C@H](CCc2ccccc2)NC1=O [Compound 1-07]
The IC50 of the first is 2.1-fold lower: 0.542 µM for the first, 1.12 µM for the second.

Compared with CS(=O)(=O)N[C@H]1Cc2cccc(c2)Oc2cccc(c2)C[C@@H](C(=O)NCC2CC2)NC(=O)[C@H](CCc2ccccc2)NC1=O [Compound 1-08], CCC(=O)N[C@H]1Cc2cccc(c2)Oc2cccc(c2)C[C@@H](C(=O)NC2CCCC2)NC(=O)[C@H](CCc2ccccc2)NC1=O [Compound 1-19] is 1.6-fold higher in IC50: 1.78 µM for the first, 2.8 µM for the second.

Going from CCCN(CCC)[C@H]1Cc2cccc(c2)Oc2cccc(c2)C[C@@H](C(=O)NCc2ccccc2)NC(=O)[C@H](CCc2ccccc2)NC1=O [Compound 1-09] to CCC(=O)N[C@H]1Cc2cccc(c2)Oc2cccc(c2)C[C@@H](C(=O)NCc2ccccc2)NC(=O)[C@H](CCc2ccccc2)NC1=O [Compound 1-14], the IC50 rises from 0.503 µM to 4.01 µM (8-fold). The first is the more potent here.

CC1CCCN1[C@H]1Cc2cccc(c2)Oc2cccc(c2)C[C@@H](C(=O)NCc2ccccc2)NC(=O)[C@H](CCc2ccccc2)NC1=O (stereo partly shown) [Compound 1-10] and O=C(CO)N[C@H]1Cc2cccc(c2)Oc2cccc(c2)C[C@@H](C(=O)NCc2ccccc2)NC(=O)[C@H](CCc2ccccc2)NC1=O [Compound 1-11] are within 1.5-fold of each other in IC50: 1.3 µM for the first, 1.93 µM for the second.

Compared with O=C(N[C@H]1Cc2cccc(c2)Oc2cccc(c2)C[C@@H](C(=O)NCc2ccccc2)NC(=O)[C@H](CCc2ccccc2)NC1=O)c1ccccn1 [Compound 1-12], O=C(N[C@H]1Cc2cccc(c2)Oc2cccc(c2)C[C@@H](C(=O)NCc2ccccc2)NC(=O)[C@H](CCc2ccccc2)NC1=O)c1ccccc1 [Compound 1-15] is 31-fold higher in IC50: 3.2 µM for the first, 100 µM for the second.

Going from Cn1cnc(C(=O)N[C@H]2Cc3cccc(c3)Oc3cccc(c3)C[C@@H](C(=O)NCc3ccccc3)NC(=O)[C@H](CCc3ccccc3)NC2=O)c1 [Compound 1-13] to O=C(N[C@H]1Cc2cccc(c2)Oc2cccc(c2)C[C@@H](C(=O)NC2CCCC2)NC(=O)[C@H](CCc2ccccc2)NC1=O)c1ccccc1 [Compound 1-23], the IC50 rises from 3.52 µM to 6.21 µM (1.8-fold).

Compared with O=C(NC1CCCC1)[C@@H]1Cc2cccc(c2)Oc2cccc(c2)C[C@H](N2CCCC2)C(=O)N[C@@H](CCc2ccccc2)C(=O)N1 [Compound 1-18], O=C(CO)N[C@H]1Cc2cccc(c2)Oc2cccc(c2)C[C@@H](C(=O)NC2CCCC2)NC(=O)[C@H](CCc2ccccc2)NC1=O [Compound 1-20] is 5.7-fold higher in IC50: 0.572 µM for the first, 3.25 µM for the second.

For CCCN(CCC)[C@H]1Cc2cccc(c2)Oc2cccc(c2)C[C@@H](C(=O)NC2CCCC2)NC(=O)[C@H](CCc2ccccc2)NC1=O [Compound 1-21], the IC50 was 3.4 µM.
